How the values were obtained:
[1] = molecular target: Aβ40 aggregates (Homo sapiens, UniProt P05067); assay: In vitro chemiluminescence study with Aβ aggregates in PBS; assay type: binding; settings: pH 7.4
[2] = tested on: misfoldons in serum; assay: ThT test of misfoldons in serum; design: species or system human; settings: some misfoldons
Description: However, the detected difference was much smaller than that by ADLumin-1.

[3] = tested on: PA-K2; assay: ThT fluorescence test with PA-K and PA-K2; assay type: binding
[4] = Fluorescence and chemiluminescence spectral studies; assay type: physicochemical
Procedure: Materials and Methods: reagents used for the synthesis were purchased from Sigma-Aldrich and used without further purification. Column chromatography was performed on a glass column slurry-packed with silica gel (60 Å, […]; SiliCycle Inc.). Recombinant Aβ peptide (1-40/42) were purchased from rPeptide (A-1163-1). Aβ aggregates for in vitro studies were generated by slow stirring of Aβ40 in PBS buffer for 3 days at room temperature. ^1H and ^13C NMR spectra were recorded at 500 MHz and 125 MHz on Bruker spectrometers in CDCl3, CD3OD or DMSO-d6 solutions at room temperature with tetramethylsilane (TMS, δ=0) as an internal standard. Liquid chromatography-mass spectrometry (LC-MS) was performed using an Agilent 1200 Series apparatus with an LC/MSD trap and Daly conversion dynode detector with UV detection at 254 nm. Fluorescence measurements were carried out using an F-7100 fluorescence spectrophotometer (Hitachi). Transgenic female 5×FAD mice and age-matched wild-type female mice were purchased from Jackson Laboratory. All animal experiments were approved by the Institutional Animal Use and Care Committee at Massachusetts General Hospital. The IVIS Spectrum animal imaging system (PerkinElmer) was used for in vitro and in vivo imaging.
Fluorescence spectral studies: Normally, all chemiluminescent molecules are fluorescent. The excitation and emission spectra of ADLumin-X were recorded and the emission peak of ADLumin-1 was around 590 nm (FIG. 1D) in DMSO, which is considerably longer than most of the commercially available chemiluminescence probes. The emission of ADLumin-2 is longer than that of ADLumin-1, due to its additional double-bond. (the emission peak of ADLumin-2 was 20 nm longer). […] Based on this fact, ADLumin-1 was used throughout this example, due to its high QY.
Chemiluminescence spectral studies: ADLumin-1 is stable in PBS buffer and organic solvents, including acetonitrile, dichloromethane and methanol. […] Without being bound by any theory, it is believed that the luminescence was due to the auto-oxidation of ADLumin-1. Although the mechanism of chemiluminescence of IPO derivatives has been studied, the mechanism of auto-oxidation has been rarely explored. In the course of the experiments, ADLumin-1 emitted very strong luminescence in pure DMSO (FIG. 2b). Unexpectedly, if the ADLumin-1 DMSO solution was stirred, even stronger luminescence can be detected (3.4-fold in FIG. 2b). Without being bound by any theory, it is believed that the luminescence was related to oxygen levels in DMSO. […] However, the increasing-fold decreased with cycles (FIG. 2c). […] Since no ROS were added into the DMSO solution, it is reasonable to infer that the auto-oxidation of ADLumin-1 was oxygen-level dependent. It is worthy to note that green fluorescent protein and luciferase/luciferin also dependent on oxygen for their proper imaging functions.

Sequence of Aβ40 aggregates (P05067 672-711 limits assumed): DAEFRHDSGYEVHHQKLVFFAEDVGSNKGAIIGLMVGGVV

MCLA [reference compound]
chemiluminescence signal with Aβs [1]: significantly reduced signal

Cc1ccc2c(c1)sc(-c1ccc(N(C)C)cc1)[n+]2C.[Cl-] [ThT, Thioflavin T]
ThT signal for misfoldons in serum [2]: slightly higher signal | difference lower than the difference provided by ADLumin-1 [3]: 11.8 fold | fluorescence difference between PA-K and PA-K2 ([3]; ThT 0.01 mg/ml): about 4.01 fold | peptide concentration at which the difference PA-K vs PA-K2 is detected ([3]; fluorescence): 0.1 mg/mL

Cc1nc2c[nH]c(/C=C/C=C/C=C/c3ccc(N(C)C)cc3)cn-2c1=O [ADLumin-2, 6-((1E,3E,5E)-6-(4-(dimethylamino)phenyl)hexa-1,3,5-trien-1-yl)-2-methylimidazo[1,2-a]pyrazin-3(7H)-one]
quantum yield ratio ΦADLumin-1/ΦADLumin-2 [4]: 1.5 | emission peak longer than that of ADLumin-1 ([4]; fluorescence, DMSO): 20 nm

firefly luciferin [reference compound]
emission peak (FWHM comparison) [4]: 570 nm | full width at half-maximum (FWHM) [4]: 83 nm

From patent US12551576B2, “Chemiluminescent probes” (The General Hospital Corporation, priority 2020, dated 2026)
